From publication PMC8070164 (Biomolecules, 2021)

Columns and labels:
[1] = test system: FMRFamide-activated Na^+ channel (FaNaC); details: cited from earlier work
Protocol: For example, some DEG/ENaCs from invertebrates are directly gated by neuropeptides. The FMRFamide-activated Na^+ channel (FaNaC) from the snail Helix is activated by the neuropeptide FMRFamide with an EC50 of ~2 μM [9], Hydra Na^+ channels (HyNaCs) are activated by Hydra-RFamides with an EC50 of 0.05–10 μM [10], and the myoinhibitory peptide-gated ion channel (MGIC) from the annelid Platynereis is activated by myoinhibitory peptides with an EC50 of 1–5 μM [11]. Therefore, neuropeptides are attractive candidates also for ASIC agonists. Of note, these peptide-gated ion channels desensitize ...

[2] = test system: ASIC2a; details: ref [18], cited from earlier work
Protocol: (§1) Indeed, several neuropeptides modulate ASICs by directly binding to these ionotropic receptors. For example, dynorphin opioid neuropeptides bind to the acidic pocket of ASIC1a and shift steady-state desensitization curves to higher proton concentrations. RFamide neuropeptides bind to the central vestibule of ASIC3 [14] and delay its desensitization. […] But ASIC2a has a low proton sensitivity with an EC50 of ~4.0 [21, 22]. Because 1 mM noci ...

[3] = test system: ASIC3; details: cited from earlier work
Protocol: as §1

[4] = test system: ASIC1b; details: cited from earlier work
Protocol: as §1

[5] = pH of bath solution after dissolving nocistatin; type: physicochemical; details: standard bath solution, 10 mM HEPES, initial pH 7.4, standard pH meter
Protocol: (§2) Rat nocistatin ([…]) has been purchased from ProteoGenix (Schiltigheim, France) with a guaranteed purity of >95%. It was delivered as a lyophilized powder. For measurements with oocytes, it was dissolved in standard bath solution (pH 7.4) to obtain a concentration of 1 mM. This solution was further diluted to 0.5 mM; for one half of this solution, the pH was adjusted to pH 7.4, for the other half it was not adjusted. For measurements with CHO cells, the peptide was dissolved in bath solution to obtain a concentration of 0.25 mM; the pH was adjusted to 7.4. The solutions were freshly prepared before use.
We dissolved nocistatin in bath solution containing 10 mM HEPES with a pH of 7.4 (see Methods); this is the same buffer at the same concentration that was previously used in the study reporting activation of ASICs by nocistatin [18]. Nocistatin dissolved readily, but, as expected for a highly acidic peptide with a pI of 3.7, the pH of the solution dropped to pH values between 6.7 and 4.15 when we dissolved nocistatin to obtain a final concentration between 0.25 and 1 mM (Table 1). We titrated nocistatin-containing solutions using NaOH until we reached again neutral pH of 7.4. For comparison, we also tested a solution containing 0.5 mM nocistatin without adjustment of the pH value.

[6] = test system: ASIC1a; details: ref [18], cited from earlier work
Text: as §1, with “Strikingly, it was reported that the apparent nocistatin affi” for “But ASIC2a has a low proton sensitivity with an EC50 of ~4.0 [21, 22]. Because 1 mM noci”

[7] = test system: rat ASIC1a; experiment: Whole cell patch-clamp in transfected CHO cells (ASIC1a activation); type: cell-based
Protocol: Chinese hamster ovary (CHO) cells were maintained in Ham’s Nutrient Mixture F12 (Sigma, St. Louis, MI, USA) together with 10% fetal bovine serum (FBS; Sigma, St. Louis, MI, USA) and passaged regularly. Cells were seeded and transfected after 1 day with 1 µg rat ASIC1a cDNA in pCDNA3.1 and 1 µg GFP using X-treme GENE (Sigma, St. Louis, MI, USA). Cells were patched 48 h after transfection.
We performed whole cell patch-clamp measurements on cultured CHO cells, using patch pipettes of 4–6 MΩ resistance filled with (in mM) 10 NaCl, 121 KCl, 2 MgCl2, 5 EGTA, 10 HEPES, pH 7.25. The bath solution contained (in mM) 128 NaCl, 5.4 KCl, 1 MgCl2, 2 CaCl2, 10 HEPES, pH 7.4 with NaOH. Osmolarity was adjusted with glucose to 280 mOsmol/L for the pipette solution and to 290 mOsmol/L for the extracellular solution. Data were acquired using an Axon Digidata 1440A and an Axon Axopatch 200B and recorded and analyzed using the pClamp Software (Axon Instruments, Molecular Devices, Sunnyvale, San Jose, CA, USA).
as §2
(A) current trace of a CHO cell transfected with rASIC1a cDNA stimulated with pH 6.0 (black bar) or with rNS (0.25 mM, pH 7.4, green bar) for 10 s. Conditioning pH 7.4. This trace is representative for 6 similar measurements. (B) as in A, ASIC1a-expressing CHO cell was stimulated repetitively with pH 6.0 for 10 s (black bars). rNS (0.25 mM, pH 7.4, green bar) was applied for 10 s prior to pH 6.0 stimulation. This trace is representative for 3 similar measurements.

[8] = test system: rat ASIC1a; experiment: Two electrode voltage-clamp in Xenopus oocytes (ASIC1a activation); type: cell-based
Protocol: ASIC1a cRNA synthesis and preparation of oocytes was described previously. Briefly, oocytes were removed from anesthetized frogs; frogs were killed after final oocyte collection by decapitation. Animal care and surgery of frogs were conducted under protocols approved by the State Office for Nature, Environment, and Consumer Protection (LANUV) of North Rhine-Westphalia (NRW), Germany, and were performed in accordance with LANUV NRW guidelines. ASIC1a cRNA (0.016 ng) was injected into stage V or VI oocytes. Oocytes were kept in OR-2 medium (in mM, 82 NaCl, 2.5 KCl, 1 Na2HPO4, 4-(2-hydroxyethyl)-1-piperazineethanesulfonic acid (HEPES), 1.0 MgCl2, 1 CaCl2, and 0.5 mg/mL polyvinylpyrrolidone) at 19 °C. Two electrode voltage-clamp measurements were performed as described previously. Whole cell currents were recorded 24–48 h post injection at room temperature (20–25 °C) with a TurboTec 03X amplifier (npi Electronic, Tamm, Germany). Fast solution exchange was performed by a programmable pipetting robot (screening tool; npi Electronic). Data acquisition was controlled using CellWorks 5.1.1 (npi Electronic). Data were filtered at 20 Hz and acquired at 1 kHz. Holding potential was −70 mV. Standard bath solution for two electrode voltage-clamp measurements contained (in mM) 140 NaCl, 1.8 CaCl2, 1 MgCl2, and 10 HEPES.
as §2
Similar to the previous study, we expressed rat ASIC1a in Xenopus laevis oocytes and performed two electrode voltage-clamp to study activation of ASIC1a by nocistatin.
Current trace recorded from a rASIC1a-expressing oocyte stimulated repetitively with pH 6.0 for 20 s (black bars); conditioning pH 7.4 was applied for 60 s. Rat nocistatin (rNS, 0.5 mM) in pH-unadjusted (pH 5.1, red bar) und pH-adjusted (pH 7.4, green bar) conditioning solution was applied for 20 s.

[9] = test system: ASIC3; details: ref [16],[17]; cited from earlier work
Text: Indeed, several neuropeptides modulate ASICs by directly binding to these ionotropic receptors. For example, dynorphin opioid neuropeptides bind to the acidic pocket of ASIC1a and shift steady-state desensitization curves to higher proton concentrations. RFamide neuropeptides bind to the central vestibule of ASIC3 [14] and delay its desensitization.

[10] = 1 mM nocistatin vs pH 5.5, ref [18]

For FMRFamide, which desensitization time constant ([1]; desensitize only partially and slowly, ref [9],[10],[11]) is on record?
Its desensitization time constant is greater than 10 s.

What about the EC50 ([1]; ref [9]) of the same substance?
Its EC50 is roughly 2 µM.

Which results are given for “MPRVRSVVQARDAEPEADAEPVADEADEVEQKQLQ [nocistatin, endogenous neuropeptide with 35 amino acids; rat nocistatin purchased from ProteoGenix, purity >95%]”?
current amplitude, 1 mM nocistatin compared with acidification from 7.4 to 5.5 ([2]; 1 mM nocistatin vs acidification from 7.4 to 5.5, ASIC2a): eight times larger current amplitudes; activation by 1 mM nocistatin ([2]; 1 mM, ASIC2a): activated; direct agonism ([2]; ASIC2): direct agonist; current amplitude, 1 mM nocistatin compared with pH 5.5 [3, 10]: similar; activation by 1 mM nocistatin ([3]; 1 mM, ref [18]): activated; direct agonism ([3]; ref [18]): direct agonist; current amplitude, 1 mM nocistatin compared with pH 5.5 [4, 10]: similar; activation by 1 mM nocistatin ([4]; 1 mM, ref [18]): activated; direct agonism ([4]; ref [18]): direct agonist; measured pH value after dissolving nocistatin ([5]; 0.25 mM nocistatin): 6.7; measured pH value after dissolving nocistatin ([5]; 0.5 mM nocistatin): 5.1; measured pH value after dissolving nocistatin ([5]; 1.0 mM nocistatin): 4.15; direct agonism ([6]; ASIC1a): direct agonist; desensitization kinetics of nocistatin-induced currents ([6]; compared with proton-induced currents): virtually identical to the kinetics of proton-induced currents; EC50 ([6]; read-out: EC50 (affinity of nocistatin for ASIC1a)): ~250 µM; ASIC1a current on pH 6.0 application following nocistatin ([7]; 0.25 mM nocistatin pH 7.4 for 10 s, then pH 6.0 for 10 s, representative for 3 measurements): induced canonical ASIC1a currents; current elicited by nocistatin at neutral pH ([7]; 0.25 mM, pH 7.4, 10 s, conditioning pH 7.4, representative for 6 measurements): elicited no current; direct activation of ASIC1a (summary) ([7]; CHO cells, text says up to 500 μM nocistatin): did not directly activate ASIC1a; ASIC1a current on pH 6.0 application immediately after nocistatin at pH 5.1 (desensitization) ([8]; 0.5 mM nocistatin pH 5.1, then pH 6.0, holding potential −70 mV, representative for 5 measurements): did not elicit currents, indicating that ASIC1a was completely desensitized; ASIC current on pH 6.0 application immediately after nocistatin at pH 7.4 (desensitization) ([8]; 0.5 mM nocistatin pH 7.4, then pH 6.0, holding potential −70 mV, representative for 5 measurements): elicited ASIC currents with a full amplitude; ASIC1a current elicited by nocistatin, pH not adjusted ([8]; 0.5 mM, pH 5.1, 20 s, conditioning pH 7.4, holding potential −70 mV, representative for 5 measurements): elicited ASIC1a currents with an amplitude and kinetics similar to the currents elicited by pH 6.0; ASIC1a current elicited by nocistatin, pH adjusted ([8]; 0.5 mM, pH adjusted to 7.4, 20 s, holding potential −70 mV, representative for 5 measurements): elicited no ASIC1a currents; direct activation of ASIC1a (summary) ([8]; up to 500 μM nocistatin, Xenopus oocytes): did not directly activate ASIC1a

Which “effect on ASIC3 desensitization” value [9] does the source give for endomorphin-1 here?
The value was “slow desensitization of ASIC3”.

Which “effect on ASIC3 desensitization” value [9] does the source give for endomorphin-2 here?
Its value is “slow desensitization of ASIC3”.
